According to patent publication US8143374B2, “Polypeptide derivatives of parathyroid hormone (PTH)” (The General Hospital Corporation, priority 2006, dated 2012):
Values joined by “and” are separate entries in the source; they are usually repeats but may differ in a detail not shown here. Identical values can stand only once. Like-named read-outs stand apart in the source and are kept apart here. Where a SMILES comes first, the peptide text is derived from it. Where no end group is shown, it is not given here. [ ]: non-standard residue; d: D form. hArg = N=C(N)NCCCC[C@H](N)C(=O)O; Cha = N[C@@H](CC1CCCCC1)C(=O)O; Nle = CCCC[C@H](N)C(=O)O; Aib = CC(C)(N)C(=O)O

Assays:
[1] = Circular dichroism spectroscopy, helical residues per peptide chain; format: physicochemical; conditions: calculated from [θ]222
Procedure: Circular Dichroism—CD spectra were obtained on a JASCO J-600 spectropolarimeter at 20° C. Four spectra were averaged and the data smoothed by the JASCO software. The instrument was calibrated with ammonium (+)-10-camphorsulfonate. Peptide concentrations were verified from the absorption at 280 nm, using an extinction coefficient of 5700 M^−1 for the single tryptophan. Data are expressed as the number of helical residues per peptide chain, as calculated from −[θ]222×30/28,000, where [θ]222 is the mean residue elipticity ([θ]) at 222 nm, as was described previously (Barbier, J. R., et al. (2005) J Biol Chem. 280:23771-23777).

PTHR-delNt = molecular target: T1, PTHR-delNt (Homo sapiens, UniProt Q03431, DEL24-181); experiment: Competition binding in COS-7 cell membranes with 125I-[Aib1,3,M]PTH(1-15)NH2 tracer; conditions: for IC50: COS-7 membranes cotransfected with negative-dominant Gαs, read-out: PTHR-delNT (COS-7) IC50; for effect on binding to PTHR-delNt (in words) / reduction (alteration) of binding affinity for PTHR-delNt relative to parent peptide: COS-7 membranes; for reduction (alteration) of binding affinity for PTHR-delNt relative to parent peptide: versus the respective parent peptide
T1 construct: expressed in transfected cells; host or cells: COS-7 cells, transient co-transfection; membranes prepared
T1 sequence (Q03431 with tags, fused parts or gaps DEL24-181): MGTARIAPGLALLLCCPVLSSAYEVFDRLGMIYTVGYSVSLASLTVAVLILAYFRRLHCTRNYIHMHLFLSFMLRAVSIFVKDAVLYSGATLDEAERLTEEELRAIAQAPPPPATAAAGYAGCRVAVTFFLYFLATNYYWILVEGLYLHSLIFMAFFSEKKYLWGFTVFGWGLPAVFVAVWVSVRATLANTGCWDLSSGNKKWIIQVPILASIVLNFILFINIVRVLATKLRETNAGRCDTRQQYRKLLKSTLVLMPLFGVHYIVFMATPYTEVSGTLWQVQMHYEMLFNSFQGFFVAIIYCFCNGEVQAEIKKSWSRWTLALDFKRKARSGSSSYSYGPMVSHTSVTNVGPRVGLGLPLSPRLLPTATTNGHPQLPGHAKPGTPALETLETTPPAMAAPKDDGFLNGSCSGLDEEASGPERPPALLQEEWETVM
Procedure: PTHR-delNt is a derivative of the human PTHR that is deleted for most (Ala^24-Arg^181) of the amino-terminal extracellular domain (Shimizu, M., et al. (2001) Endocrinology 142:3068-3074). This PTHR construct was expressed in COS-7 cells via transient DNA transfection. For cAMP assays, the cells were transfected in 24-well plates using 0.2 μg of plasmid DNA and 0.6 μl of Fugene-6 reagent (Roche Diagnostics, Indianapolis Ind.) per well, and assays were performed on the intact cells three to four days after transfection. For binding assays, cell membranes were prepared from transfected COS-7 cells. To increase the maximal binding of ^125I-[Aib^1,3,M]PTH(1-15)NH2 to PTHR-delNt in these membranes, the cells were cotransfected with a negative dominant mutant Gαs protein (Gαs^ND). This mutant Gαs subunit is thought to couple to cognate receptors, and thus stabilize high affinity receptor conformations, more efficiently than does wild-type Gαs, without increasing basal cAMP levels (Berlot, C. H. (2002) J Biol Chem 277:21080-5). A precursor of this mutant Gαs, Gαs(α3β5), was recently used to increase binding of ^125I-[Aib^1,3,M]PTH(1-15)NH2 to PTHR-delNt in COS-7 cell membranes (Dean, T., (2006) Mol Endocrinol 20:931-942). Gαs^ND, which contains the same five amino acid replacement of corresponding Gαi residues in the α3β5 loop as Gαs(α3β5), plus the point mutations of Gly^226 to Ala, which increases affinity for Gβ/γ, and Ala^366 to Ser, which decreases affinity for GDP, yields approximately two-fold higher levels of specific binding of ^125I-[Aib^1,3,M]PTH(1-15)NH2 than does Gαs(α3β5) (data not shown). For the current membrane preparations, COS-7 cells were co-transfected in six-well plates using 1 μg of each plasmid DNA encoding PTHR-delNt and Gαs^ND, and 6 μl of Fugene-6 reagent (Roche Diagnostics, Indianapolis Ind.) per well. Cells were harvested three days after transfection, and membranes were prepared as described (Dean, T., et al. (2006) Mol Endocrinol 20:931-942).
Receptor binding—Binding to the wild-type human PTHR in intact HKRK-B7 cells and ROS 17/2.8 cells was assessed using ^125I-PTH(1-34) as a tracer radioligand, as described (Shimizu, M., (2001) Endocrinology 142:3068-3074). In brief, the cells in 24-well plates (about 500,000 cells per well) were incubated in binding buffer containing radioligand (about 100,000 cpm per well) with or without unlabeled peptide ligand (3×10^−9 to 1×10^−5 M) for four hours at 15° C. The binding mixture was then removed by aspiration, the cells were rinsed three times with binding buffer, lysed in 1 M NaOH, and the entire lysate was counted for gamma-irradiation in a gamma counter. Binding to PTHR-delNt in COS-7 cell membranes was assessed in 96-well, vacuum filtration plates (Multiscreen-Durapore HV, […] membranes, Millipore Corp., Millford, Mass.) using ^125I-[Aib^1,3,M]PTH(1-15)NH2 as a tracer radioligand, as described (Dean, T., (2006) Mol Endocrinol 20:931-942). In brief, cell membranes (20 μg/well) were incubated in membrane binding buffer containing radioligand (30,000 cpm/well) with or without unlabeled peptide ligand (3×10^−9 to 1×10^−5 M) for 90 minutes at 21° C. The plates were then subject to rapid vacuum filtration, the filters were washed once with buffer, detached from the plate and counted for gamma-irradiation in a gamma counter. Non-specific binding was defined as the binding observed in the presence of 1×10^−6 M PTH(1-31)NH2 for HKRK-B7 and ROS 17/2.8 cells, and 1×10^−6 M [Aib^1,3,M]PTH(1-15)NH2 for PTHR-delNt. Specifically bound radioactivity was calculated as a percentage of the radioactivity specifically bound in the absence of competing ligand. […]

[2] = [Ala1,Arg19]hPTH(1-31)NH2 analogs

CD helical residues ([1]; hPTH(1-31)NH2 analogs)	IC50 (PTHR-delNt; hPTH(1-31)NH2 analogs)	CD helical residues [1, 2]	reduction (alteration) of binding affinity for PTHR-delNt relative to parent peptide (PTHR-delNt)	IC50 (PTHR-delNt; [2])	Compound	effect on binding to PTHR-delNt (in words) (PTHR-delNt)
	2.2 ± 0.5 nM				CCCC[C@H](NC(=O)[C@H](CC(C)C)NC(=O)[C@H](CCC(N)=O)NC(=O)[C@@H](NC(=O)[C@H](CCC(=O)O)NC(=O)C(C)(C)NC(=O)[C@@H](NC(=O)C(C)(C)N)C(C)C)[C@@H](C)CC)C(=O)N[C@@H](Cc1c[nH]cn1)C(=O)N[C@@H](CCC(N)=O)C(=O)N[C@@H](CCCCNC(=N)N)C(=O)N[C@@H](C)C(=O)N[C@@H](CCCCN)C(=O)N[C@@H](Cc1c[nH]c2ccccc12)C(=O)N[C@@H](Cc1ccc(O)cc1)C(N)=O [[Aib^1,3,M]PTH(1-15), [Aib^1,3,Nle^8,Gln^10,homoarginine^11,Ala^12,Trp^14,Tyr^15]PTH(1-15)NH2, reference compound] (H-[Aib]V[Aib]EIQL[Nle]HQ[hArg]AKWY-NH2; N-terminus assumed)	
		9		466 ± 298 nM	CC[C@H](C)[C@H](NC(=O)[C@H](CCC(=O)O)NC(=O)[C@H](CO)NC(=O)[C@@H](NC(=O)[C@H](C)N)C(C)C)C(=O)N[C@@H](CCC(N)=O)C(=O)N[C@@H](CC(C)C)C(=O)N[C@@H](CCSC)C(=O)N[C@@H](Cc1c[nH]cn1)C(=O)N[C@@H](CC(N)=O)C(=O)N[C@@H](CC(C)C)C(=O)NCC(=O)N[C@@H](CCCCN)C(=O)N[C@@H](Cc1c[nH]cn1)C(=O)N[C@@H](CC(C)C)C(=O)N[C@@H](CC(N)=O)C(=O)N[C@@H](CO)C(=O)N[C@@H](CCSC)C(=O)N[C@@H](CCCNC(=N)N)C(=O)N[C@@H](CCCNC(=N)N)C(=O)N[C@H](C(=O)N[C@@H](CCC(=O)O)C(=O)N[C@@H](Cc1c[nH]c2ccccc12)C(=O)N[C@@H](CC(C)C)C(=O)N[C@@H](CCCNC(=N)N)C(=O)N[C@@H](CCCCN)C(=O)N[C@@H](CCCCN)C(=O)N[C@@H](CC(C)C)C(=O)N[C@@H](CCC(N)=O)C(=O)N[C@@H](CC(=O)O)C(=O)N[C@@H](CC1CCCCC1)C(N)=O)C(C)C [Val^31→Cha] (H-AVSEIQLMHNLGKHLNSMRRVEWLRKKLQD[Cha]-NH2; N-terminus assumed)	
				400 nM and 397 nM	AVSEIQLMHNLGKHLNSMRRVEWLRKKLQDV-NH2 [[Ala^1,Arg^19]PTH(1-31)NH2]	

The next lines start with the compound.

Compound	CD helical residues ([1]; hPTH(1-31)NH2 analogs)	IC50 (PTHR-delNt; hPTH(1-31)NH2 analogs)	CD helical residues [1, 2]	reduction (alteration) of binding affinity for PTHR-delNt relative to parent peptide (PTHR-delNt)	IC50 (PTHR-delNt; [2])	effect on binding to PTHR-delNt (in words) (PTHR-delNt)
SVSEIQLMHNLGKHLNSAERVEWLRKKLQDV-NH2 [Met^18→Ala]	10	8800 nM				
CC[C@H](C)[C@H](NC(=O)[C@H](CCC(=O)O)NC(=O)[C@H](CO)NC(=O)[C@@H](NC(=O)[C@H](C)N)C(C)C)C(=O)N[C@@H](CCC(N)=O)C(=O)N[C@@H](CC(C)C)C(=O)N[C@@H](CCSC)C(=O)N[C@@H](Cc1c[nH]cn1)C(=O)N[C@@H](CC(N)=O)C(=O)N[C@@H](CC(C)C)C(=O)NCC(=O)N[C@@H](CCCCN)C(=O)N[C@@H](Cc1c[nH]cn1)C(=O)N[C@@H](CC(C)C)C(=O)N[C@@H](CC(N)=O)C(=O)N[C@@H](CO)C(=O)N[C@@H](CCSC)C(=O)N[C@@H](CCCNC(=N)N)C(=O)N[C@@H](CCCNC(=N)N)C(=O)N[C@H](C(=O)N[C@@H](CCC(=O)O)C(=O)N[C@@H](Cc1c[nH]c2ccccc12)C(=O)N[C@@H](CC1CCCCC1)C(=O)N[C@@H](CCCNC(=N)N)C(=O)N[C@@H](CCCCN)C(=O)N[C@@H](CCCCN)C(=O)N[C@@H](CC(C)C)C(=O)N[C@@H](CCC(N)=O)C(=O)N[C@@H](CC(=O)O)C(=O)N[C@H](C(N)=O)C(C)C)C(C)C [Leu^24→Cha] (H-AVSEIQLMHNLGKHLNSMRRVEW[Cha]RKKLQDV-NH2; N-terminus assumed)			9	three-fold or less	283 ± 68 nM	little or no effect on binding to PTHR-delNt
CC[C@H](C)[C@H](NC(=O)[C@H](CCC(=O)O)NC(=O)[C@H](CO)NC(=O)[C@@H](NC(=O)[C@H](C)N)C(C)C)C(=O)N[C@@H](CCC(N)=O)C(=O)N[C@@H](CC(C)C)C(=O)N[C@@H](CCSC)C(=O)N[C@@H](Cc1c[nH]cn1)C(=O)N[C@@H](CC(N)=O)C(=O)N[C@@H](CC(C)C)C(=O)NCC(=O)N[C@@H](CCCCN)C(=O)N[C@@H](Cc1c[nH]cn1)C(=O)N[C@@H](CC(C)C)C(=O)N[C@@H](CC(N)=O)C(=O)N[C@@H](CO)C(=O)N[C@@H](CC1CCCCC1)C(=O)N[C@@H](CCCNC(=N)N)C(=O)N[C@@H](CCCNC(=N)N)C(=O)N[C@H](C(=O)N[C@@H](CCC(=O)O)C(=O)N[C@@H](Cc1c[nH]c2ccccc12)C(=O)N[C@@H](CC(C)C)C(=O)N[C@@H](CCCNC(=N)N)C(=O)N[C@@H](CCCCN)C(=O)N[C@@H](CCCCN)C(=O)N[C@@H](CC(C)C)C(=O)N[C@@H](CCC(N)=O)C(=O)N[C@@H](CC(=O)O)C(=O)N[C@H](C(N)=O)C(C)C)C(C)C [Met^18→Cha] (H-AVSEIQLMHNLGKHLNS[Cha]RRVEWLRKKLQDV-NH2; N-terminus assumed)			8		408 ± 32 nM	
AVSEIQLMHNLGKHLNSMRRVEWLRKKEQDV-NH2 [Leu^28→Glu]			5	less than three-fold	974 ± 252 nM	only mildly impaired binding to PTHR-delNt
CC[C@H](C)[C@H](NC(=O)[C@H](CCC(=O)O)NC(=O)[C@H](CO)NC(=O)[C@@H](NC(=O)[C@H](C)N)C(C)C)C(=O)N[C@@H](CCC(N)=O)C(=O)N[C@@H](CC(C)C)C(=O)N[C@@H](CCSC)C(=O)N[C@@H](Cc1c[nH]cn1)C(=O)N[C@@H](CC(N)=O)C(=O)N[C@@H](CC(C)C)C(=O)NCC(=O)N[C@@H](CCCCN)C(=O)N[C@@H](Cc1c[nH]cn1)C(=O)N[C@@H](CC(C)C)C(=O)N[C@@H](CC(N)=O)C(=O)N[C@@H](CO)C(=O)N[C@@H](CCSC)C(=O)N[C@@H](CCCNC(=N)N)C(=O)N[C@@H](CCCNC(=N)N)C(=O)N[C@H](C(=O)N[C@@H](CCC(=O)O)C(=O)N[C@@H](Cc1c[nH]c2ccccc12)C(=O)N[C@@H](CC(C)C)C(=O)N[C@@H](CCCNC(=N)N)C(=O)N[C@@H](CCCCN)C(=O)N[C@@H](CC1CCCCC1)C(=O)N[C@@H](CC(C)C)C(=O)N[C@@H](CCC(N)=O)C(=O)N[C@@H](CC(=O)O)C(=O)N[C@H](C(N)=O)C(C)C)C(C)C [Lys^27→Cha] (H-AVSEIQLMHNLGKHLNSMRRVEWLRK[Cha]LQDV-NH2; N-terminus assumed)			18		629 ± 72 nM	
